Data reported in patent publication US12364667B2, “Anti-tumor platinum-based drug mineralized protein nanoparticle, preparation method therefor and use thereof” (SOOCHOW UNIVERSITY, priority 2019, dated 2025).

What was measured:
[1] = Serum ALT, AST, ALP and urea nitrogen after treatment; assay type: in vivo, Balb/c mice; conditions: 7 days after complete injection; tail vein, once every 5 days, 5 administrations
Method: 12. […] Each mouse was administered via the tail vein (1 mg/mL, once every 5 days). After a total of 5 administrations for 25 days, each mouse was taken by eyeball blood sampling at 7, 14, 21, and 28 days after administration. A 0.5 mL blood sample from a mouse was placed overnight at 4° C. and centrifuged at 1000 rpm for 5 min. The upper clarified serum 200 μL was taken out to measure the alanine aminotransferase (ALT), aspartate aminotransferase (AST), alkaline phosphatase (ALP) and urea nitrogen (Urea) contents.

HepG-2 cell line = assay: MTT cytotoxicity on HepG-2 cell line; assay type: cell-based, human; conditions: 24 hours
Method: Placing the plate in a cell incubator for 12 hours at constant temperature. […] After 24 hours in the incubator, replace the culture medium, add 10 μL of MTT (3-(4,5-dimethylthiazol-2-yl)-2,5-diphenyltetrazolium bromide) PBS (phosphate-buffered saline) solution with a concentration of 5 mg/mL, discard the culture medium after 4 hours, add 200 μL of DMSO (dimethylsulfoxide), shake for 10 minutes, measure the absorbance value at 490 nm with a microplate reader.

A549/DDP tumor model = assay: Anti-tumor effect, A549/DDP subcutaneous tumor model; assay type: in vivo, nude mice; conditions: platinum 1 mg/kg once every 5 days, 25 days
A549 tumor model = assay: Anti-tumor effect, A549 subcutaneous tumor model; assay type: in vivo

Compound: N.N.[Cl][Pt][Cl] [cisplatin]
- serum urea nitrogen content versus control group [1]: significantly different from that of the control group
- IC50 for HepG-2 cell line (HepG-2 cell line): 12.6 µg/mL
- effect on tumor growth (A549/DDP tumor model): a certain tumor-inhibiting effect
- effect on tumor growth (A549 tumor model; A549 tumor model, platinum 1 mg/kg once every 5 days, 25 days): a certain tumor-inhibiting effect
- condition of the nude mice during the observation period (A549 tumor model; mouse, in vivo): in poor condition and lost weight
